Consider seven molecules from patent publication US8048825B2, “Haloalkylsulfonanilide derivatives or salt thereof, herbicide comprising the derivatives as active ingredient, and use of the herbicide” (Nihon Nohyaku Co., Ltd., priority 2006, dated 2011).

Each structure is given as a SMILES string.

Common to all, as to type: in vivo
The test system of test [1] is Scirpus juncoides. Put plainly: Herbicidal efficacy on paddy field weeds of pre-emergence stage (Pre), Test Example 1. As to conditions: 1000 g/ha as active ingredient, examined after 21 days. The procedure, abridged:
(§1)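 Pre-emergence paddy test: 1000 g/ha active ingredient, formulated and water-diluted, dropped onto 5 cm floodwater one day after sowing both weeds in clay loam. After 21 days in greenhouse, inhibition relative to untreated control rated on 0 (0%) to 5 (100%) scale.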

Test [2] deals with Lindernia procumbens. Described as above. Particulars: 1000 g/ha as active ingredient, examined after 21 days. The method in brief: as §1
The test system of test [3] is Scirpus juncoides. Put plainly: Herbicidal effect on paddy field weeds of post-emergence stage (Post), Test Example 2. Particulars: one-leaf stage, 1000 g/ha as active ingredient, examined after 21 days. The method in brief:
(§2)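 Post-emergence paddy test: formulated compound added to 5 cm standing water at 1000 g/ha a.i. when weeds reached one-leaf stage in clay loam pots in greenhouse. Growth inhibition rated 21 days later versus untreated control on a 0 (0%) to 5 (100%) scale.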

Another test deals with Echinochloa crus-galli. The test is described as above. As to conditions: one-leaf stage, 1000 g/ha as active ingredient, examined after 21 days. The method in brief: as §2
Test [4] deals with Lindernia procumbens. Described as above. As to conditions: one-leaf stage, 1000 g/ha as active ingredient, examined after 21 days. The method in brief: as §2

On to `CC(C)COC(=O)N(c1ccccc1CN1CCC2(CCCC2)OC1=O)S(=O)(=O)C(F)(F)F` [Compound 1-142], for which the “Scirpus juncoides pre (herbicidal effect)” value (shortened to “Scirpus juncoides pre”) with Scirpus juncoides [1] is listed as 4 (90%-99% herbicidal effect, phytotoxicity). The “Lindernia procumbens pre (herbicidal effect)” value (shortened to “Lindernia procumbens pre”) in the test on Lindernia procumbens [2] is 4 (90%-99% herbicidal effect, phytotoxicity). Moreover, the “Scirpus juncoides post (herbicidal effect)” value (from here on “Scirpus juncoides post”) in the test with Scirpus juncoides [3] was 4 (90%-99% herbicidal effect, phytotoxicity). Moreover, the “Echinochloa crus-galli post (herbicidal effect)” value (shortened to “Echinochloa crus-galli post”) with Echinochloa crus-galli is recorded as 4 (90%-99% herbicidal effect, phytotoxicity). For the same molecule, in the test on Lindernia procumbens [4], the “Lindernia procumbens post (herbicidal effect)” value (“Lindernia procumbens post” for short) is 4 (90%-99% herbicidal effect, phytotoxicity).
For the molecule `CC(C)COC(=O)N(c1ccccc1CN1CCC(C(F)(F)F)(C(F)(F)F)OC1=O)S(=O)(=O)C(F)(F)F` [Compound 1-343], the “Scirpus juncoides pre” value in the test with Scirpus juncoides [1] was 5 (100% herbicidal effect, phytotoxicity). In the test with Lindernia procumbens [2], the “Lindernia procumbens pre” value was 5 (100% herbicidal effect, phytotoxicity). For the same molecule, in the test on Scirpus juncoides [3], the “Scirpus juncoides post” value was 4 (90%-99% herbicidal effect, phytotoxicity). The “Echinochloa crus-galli post” value in the test on Echinochloa crus-galli is 4 (90%-99% herbicidal effect, phytotoxicity). Also, the “Lindernia procumbens post” value in the test on Lindernia procumbens [4] is 5 (100% herbicidal effect, phytotoxicity).
With `COC(=O)N(c1ccccc1CN1CCC(c2c(C)cccc2C)OC1=O)S(=O)(=O)C(F)(F)F` (centres unmarked) [Compound 1-361], in the test on Scirpus juncoides [1], the “Scirpus juncoides pre” value was 5 (100% herbicidal effect, phytotoxicity). Besides, the “Lindernia procumbens pre” value in the test on Lindernia procumbens [2] was 5 (100% herbicidal effect, phytotoxicity). Besides, the “Scirpus juncoides post” value in the test with Scirpus juncoides [3] is 4 (90%-99% herbicidal effect, phytotoxicity). Moreover, the “Echinochloa crus-galli post” value with Echinochloa crus-galli was 4 (90%-99% herbicidal effect, phytotoxicity). Besides, the “Lindernia procumbens post” value with Lindernia procumbens [4] was 5 (100% herbicidal effect, phytotoxicity).
Take `CCC1(CC(C)C)CCN(Cc2ccccc2NS(=O)(=O)C(F)(F)F)C(=O)O1` (centres unmarked) [Compound 1-417]: the “Scirpus juncoides pre” value with Scirpus juncoides [1] is listed as 5 (100% herbicidal effect, phytotoxicity). Besides, the “Lindernia procumbens pre” value in the test with Lindernia procumbens [2] is on record as 5 (100% herbicidal effect, phytotoxicity). In addition, the “Scirpus juncoides post” value with Scirpus juncoides [3] is recorded as 4 (90%-99% herbicidal effect, phytotoxicity). For the same molecule, in the test on Echinochloa crus-galli, the “Echinochloa crus-galli post” value is reported as 4 (90%-99% herbicidal effect, phytotoxicity). Further, in the test on Lindernia procumbens [4], the “Lindernia procumbens post” value was 5 (100% herbicidal effect, phytotoxicity).
Regarding `CCOC(=O)N(c1ccccc1CN1CCC(c2ccccc2C)OC1=O)S(=O)(=O)C(F)(F)F` (centres unmarked) [Compound 1-285], the “Scirpus juncoides pre” value with Scirpus juncoides [1] is given as 4 (90%-99% herbicidal effect, phytotoxicity). The “Lindernia procumbens pre” value in the test with Lindernia procumbens [2] is 5 (100% herbicidal effect, phytotoxicity). The “Scirpus juncoides post” value in the test on Scirpus juncoides [3] is listed as 4 (90%-99% herbicidal effect, phytotoxicity). Also, in the test on Echinochloa crus-galli, the “Echinochloa crus-galli post” value is 4 (90%-99% herbicidal effect, phytotoxicity). In addition, the “Lindernia procumbens post” value in the test on Lindernia procumbens [4] is on record as 5 (100% herbicidal effect, phytotoxicity).
`CCOC(=O)N(c1ccccc1CN1CCC(C)(C(C)(C)C)OC1=O)S(=O)(=O)C(F)(F)F` (centres unmarked) [Compound 1-329]: the “Scirpus juncoides pre” value with Scirpus juncoides [1] was 5 (100% herbicidal effect, phytotoxicity). Also, the “Lindernia procumbens pre” value in the test with Lindernia procumbens [2] is given as 5 (100% herbicidal effect, phytotoxicity). Besides, the “Scirpus juncoides post” value in the test with Scirpus juncoides [3] is listed as 4 (90%-99% herbicidal effect, phytotoxicity). In the test with Echinochloa crus-galli, the “Echinochloa crus-galli post” value was 4 (90%-99% herbicidal effect, phytotoxicity). The “Lindernia procumbens post” value in the test on Lindernia procumbens [4] is given as 5 (100% herbicidal effect, phytotoxicity).
Consider `CC1(C)COC(=O)N(Cc2ccccc2NS(=O)(=O)C(F)(F)F)C1` [Compound 1-23], for which the “Scirpus juncoides pre” value with Scirpus juncoides [1] is recorded as 4 (90%-99% herbicidal effect, phytotoxicity). Also, the “Lindernia procumbens pre” value in the test with Lindernia procumbens [2] was 4 (90%-99% herbicidal effect, phytotoxicity). In the test on Scirpus juncoides [3], the “Scirpus juncoides post” value is 4 (90%-99% herbicidal effect, phytotoxicity). In the test with Echinochloa crus-galli, the “Echinochloa crus-galli post” value is given as 4 (90%-99% herbicidal effect, phytotoxicity). In addition, the “Lindernia procumbens post” value in the test on Lindernia procumbens [4] is on record as 4 (90%-99% herbicidal effect, phytotoxicity).
